ChEMBL document CHEMBL1201862, “PubChem BioAssay data set” (2004)
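Step 1: Grow cells in 96-well plates. Step 2: Expose to compound for 48 hours at 5 concentrations. Step 3: Interpolate endpoints linearly; if unreached, use highest concentration. GI50 marks 50% less growth.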 Active and inactive are the calls of the source. No stated cut-off is given here; in the data, active = GI50 up to about 1.1 µM and inactive = higher.

Key:
Assay in all cases: NCI tumour cell line growth inhibition, 48 h
KM12 = system: KM12
786-0 = system: 786-0
HCT-116 = system: HCT-116
SW-620 = system: SW-620
T47D = system: T47D
HT-29 = system: HT-29
Hs-578T = system: Hs-578T
DU-145 = system: DU-145
IGROV-1 = system: IGROV-1
NCI-H460 = system: NCI-H460
ACHN = system: ACHN
CCRF-CEM = system: CCRF-CEM
HOP-92 = system: HOP-92
CAKI-1 = system: CAKI-1
HCT-15 = system: HCT-15
SK-MEL-28 = system: SK-MEL-28
RXF 393 = system: RXF 393
BT-549 = system: BT-549
UO-31 = system: UO-31
SF-295 = system: SF-295

Compound | GI50 (KM12) | GI50 (786-0) | GI50 (HCT-116) | GI50 (SW-620) | GI50 (T47D) | GI50 (HT-29) | GI50 (Hs-578T) | GI50 (DU-145) | GI50 (IGROV-1) | GI50 (NCI-H460) | GI50 (ACHN) | GI50 (CCRF-CEM) | GI50 (HOP-92) | GI50 (CAKI-1) | GI50 (HCT-15) [µM] | GI50 (SK-MEL-28) | GI50 (RXF 393) | GI50 (BT-549) | GI50 (UO-31) | GI50 (SF-295)
CCO/C(=N/S(=O)(=O)C(F)(F)F)N(C(C)C)C(C)C | > 100 µM (inactive) | > 100 µM (inactive) | > 100 µM (inactive) | > 100 µM (inactive) | > 100 µM (inactive) | > 100 µM (inactive) | > 100 µM (inactive) | > 100 µM (inactive) | > 100 µM (inactive) | > 100 µM (inactive) | > 100 µM (inactive) | > 100 µM (inactive) | > 100 µM (inactive) | > 100 µM (inactive) | > 100 | > 100 µM (inactive) | > 100 µM (inactive) | > 100 µM (inactive) |  | 
CC1=C(C#N)C(=C(C#N)C#N)OC1(C)Cc1ccccc1 (centres undefined) | 55.5 µM (inactive) | 41.7 µM (inactive) | 36.7 µM (inactive) | 42.9 µM (inactive) | 29.9 µM (inactive) | 32.7 µM (inactive) | 30 µM (inactive) | 37 µM (inactive) | 51.3 µM (inactive) |  | 18.5 µM (inactive) |  | 19.7 µM (inactive) | 24.7 µM (inactive) | 23.3 | 49.9 µM (inactive) | 17.6 µM (inactive) | 35.1 µM (inactive) | 18.7 µM (inactive) | 67.3 µM (inactive)
O=C(CCCl)NN=C1NCCN1 | > 100 µM (inactive) | > 100 µM (inactive) | > 100 µM (inactive) | > 100 µM (inactive) | > 100 µM (inactive) | > 100 µM (inactive) | > 100 µM (inactive) | > 100 µM (inactive) | > 100 µM (inactive) | > 100 µM (inactive) | > 100 µM (inactive) | > 100 µM (inactive) | > 100 µM (inactive) |  | > 100 | > 100 µM (inactive) | > 100 µM (inactive) | > 100 µM (inactive) | > 100 µM (inactive) | > 100 µM (inactive)
CCC(=O)O[C@H]1CC[C@H]2[C@@H]3CCC4=C/C(=N/OC(=O)c5cccc6cc7ccccc7nc56)CC[C@]4(C)[C@H]3CC[C@]12C | 40.7 µM (inactive) | > 100 µM (inactive) | 36.1 µM (inactive) | 65.8 µM (inactive) | 21.9 µM (inactive) | 42.9 µM (inactive) | 39.6 µM (inactive) | > 100 µM (inactive) | 11.5 µM (inactive) | 39.1 µM (inactive) | > 100 µM (inactive) | 41.2 µM (inactive) | > 100 µM (inactive) | > 100 µM (inactive) | 55.7 | 90.2 µM (inactive) | > 100 µM (inactive) | 63.8 µM (inactive) |  | 
CCn1c(-c2ccccc2)nc2c1C(=O)c1ccccc1C2=O | 22.7 µM (inactive) | 84.9 µM (inactive) | 21.7 µM (inactive) | 32.1 µM (inactive) | 2.22 µM (inactive) | 8.99 µM (inactive) | 27.2 µM (inactive) | 28.1 µM (inactive) | 19.3 µM (inactive) | 20 µM (inactive) |  | 18.4 µM (inactive) | 24.2 µM (inactive) |  | 17.1 | 56 µM (inactive) | 15.6 µM (inactive) | 24.9 µM (inactive) |  | 30.1 µM (inactive)
Cc1cc(C)c(O)c(CN2CCN(C(C)C)CCN(C(C)C)CC2)c1 | 17 µM (inactive) | 42.9 µM (inactive) | 7.41 µM (inactive) | 42.8 µM (inactive) | 22 µM (inactive) |  | 24.5 µM (inactive) | 85.7 µM (inactive) | 2.26 µM (inactive) | 34.7 µM (inactive) | 32.1 µM (inactive) | 19.1 µM (inactive) | 13.7 µM (inactive) | 75.2 µM (inactive) | 46.7 | 24.7 µM (inactive) | 16 µM (inactive) | 22 µM (inactive) | 18.6 µM (inactive) | 15.7 µM (inactive)
